Results: patent publication US8026218B2, “Bifunctional analgesic compounds for opioid receptor agonists and neurokinin-1 receptor antagonists” (The University of Arizona, priority 2006, dated 2011)
Like-named read-outs stand apart in the source and are kept apart here.

Tests used:
[1] = target: T1, rat μ opioid receptors (rMOR) (Rattus norvegicus, UniProt P33535); assay: biochemical; assay type: biochemical
T1 construct: expressed in transfected cells; host or cells: HN9.10 neuroblastoma cell line, pCDNA3, neomycin-selected clones

[2] = target: T2, human δ opioid receptors (hDOR) (Homo sapiens, UniProt P41143); assay: [35S]GTP-γ-S binding assay, hDOR; assay type: biochemical
T2 construct: expressed in transfected cells; host or cells: HN9.10 neuroblastoma cell line, pCDNA3, neomycin-selected clones

[3] = target: T3, human NK1 receptor (hNK1) (Homo sapiens, UniProt P25103); assay: Radioligand competition binding, [3H]-Substance P, hNK1
T3 construct: expressed in transfected cells

[4] = target: T2, human δ opioid receptors (hDOR); assay: Radioligand competition binding, [3H]DPDPE, hDOR membranes
μ opioid receptors (GPI) = assay: Guinea pig isolated ileum (GPI) assay, opioid agonist;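 further: inhibition of electrically evoked contractions (0.1 Hz, 0.4 msec, supramaximal voltage) in organ baths at 37 °C, contraction height 3 min after each cumulative dose versus the 1 min before dosing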
rat NK1 (rNK1) receptor = target: T4, rat NK1 (rNK1) receptor (Rattus norvegicus, UniProt P14600); assay: Radioligand competition binding, [3H]substance P, rNK1/CHO membranes; conditions: for IC50: membranes from transfected CHO cells
T4 construct: expressed in transfected cells; host or cells: CHO (rNK-1/CHO cell line from Dr. James Krause)

[5] = target: T1, rat μ opioid receptors (rMOR); assay: Radioligand competition binding, [3H]DAMGO, rMOR membranes
δ opioid receptors (MVD) = target: T5, δ opioid receptors (MVD) (Mus musculus, UniProt P32300); assay: Mouse isolated vas deferens (MVD) assay, opioid agonist
T5 construct: from tissue; host or cells: mouse (ICR) isolated vas deferens

[6] = Brain distribution, in situ perfusion model; assay type: in vivo; conditions: FIG. 20
[7] = target: T6, Substance P receptors (guinea pig NK1) (Cavia porcellus, UniProt P30547); assay: Guinea pig isolated ileum (GPI) assay with substance P stimulation in presence of 1 μM naloxone; conditions: for Kb: Substance P antagonist, GPI, in the presence of 1 μM naloxone
T6 construct: from tissue; host or cells: guinea pig (Hartley) ileum LMMP, 1 μM naloxone present

[8] = Octanol/saline distribution (logD7.4); assay type: physicochemical; conditions: 0.05 N HEPES buffer in 0.1 N NaCl
Protocol: HEPES buffer (0.05 M HEPES buffer in 0.1 M NaCl, pH 7.4, 500 μL) was added to 2 mg of compound and mixed with 500 μL of 1-octanol. The sample was shaken at r.t. for 12 h to allow equilibrating. The sample was centrifuged at 6500 rpm in a VanGuard V6500 (GlaxoSmithKline, Research Triangle Park, N.C.) for 15 min. The layers were separated and each layer was centrifuged once again. The compound concentrations of obtained layers were analyzed by HPLC (30-70% of acetonitrile containing 0.1% TFA within 20 min and up to 95% within additional 5 min, 1 mL/min, 230 nm, Vydac 218TP104 C-18 column). The logarithm of 1-octanol/saline distribution (logD7.4) was calculated as the ratio of compound concentration in the 1-octanol and saline phases.
Octanol/saline distribution (logD7.4) (Yamamoto, 2007, J. Med. Chem., submitted). HEPES buffer (0.05 M HEPES buffer in 0.1 M NaCl, pH 7.4, 500 μL) was added to 2 mg of compound and mixed with 500 μL of 1-octanol. The sample was shaken at r.t. for 12 h to allow equilibrating. The sample was centrifuged at 6500 rpm in a VanGuard V6500 (GlaxoSmithKline, Research Triangle Park, N.C.) for 15 min. The layers were separated and each layer was centrifuged once again. The compound concentrations in the obtained layers were analyzed by HPLC (30-70% of acetonitrile containing 0.1% TFA within 20 min and up to 95% within additional 5 min, 1 mL/min, 230 nm, Vydac 218TP104 C-18 column). The logarithm of 1-octanol/saline distribution (logD7.4) was calculated as the ratio of compound concentration in the 1-octanol and saline phases.

FIG. 47 = assay: FIG. 47
Protocol: Table printed on a drawing sheet, FIG. 47
The patent's description of the figure: FIG. 47. Concentration of cyclic compounds in rat plasma after incubation at 37° C.

rNK1 = rNK1 (Rattus norvegicus, UniProt P14600); conditions: previous studies; read-out: Affinity (Ki in nM), rNK1; cited from earlier work
MOR = MOR (Homo sapiens, UniProt P35372); conditions: previous studies; read-out: Affinity (Ki in nM), MOR; cited from earlier work
DOR = DOR (Homo sapiens, UniProt P41143); conditions: previous studies; read-out: Affinity (Ki in nM), DOR; cited from earlier work
[9] = membranes from transfected HN9.10 cells
[10] = Table 39, read-out: GPI/LMMP opioid(mu) agonist (IC50; nM)
[11] = electrically stimulated isolated tissue, read-out: GPI (μ), IC50

T1 sequence (P33535 whole entry): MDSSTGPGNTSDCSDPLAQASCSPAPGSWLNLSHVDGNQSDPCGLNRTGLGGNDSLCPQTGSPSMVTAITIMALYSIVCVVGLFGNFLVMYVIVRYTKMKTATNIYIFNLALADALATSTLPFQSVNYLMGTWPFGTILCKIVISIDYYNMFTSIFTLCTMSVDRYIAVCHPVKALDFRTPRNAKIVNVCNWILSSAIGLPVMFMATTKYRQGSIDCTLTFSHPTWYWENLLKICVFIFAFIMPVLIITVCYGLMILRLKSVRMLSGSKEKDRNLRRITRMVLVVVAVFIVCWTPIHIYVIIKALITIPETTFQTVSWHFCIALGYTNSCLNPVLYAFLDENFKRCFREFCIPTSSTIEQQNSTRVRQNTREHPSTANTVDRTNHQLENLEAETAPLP
T6 sequence (P30547 whole entry): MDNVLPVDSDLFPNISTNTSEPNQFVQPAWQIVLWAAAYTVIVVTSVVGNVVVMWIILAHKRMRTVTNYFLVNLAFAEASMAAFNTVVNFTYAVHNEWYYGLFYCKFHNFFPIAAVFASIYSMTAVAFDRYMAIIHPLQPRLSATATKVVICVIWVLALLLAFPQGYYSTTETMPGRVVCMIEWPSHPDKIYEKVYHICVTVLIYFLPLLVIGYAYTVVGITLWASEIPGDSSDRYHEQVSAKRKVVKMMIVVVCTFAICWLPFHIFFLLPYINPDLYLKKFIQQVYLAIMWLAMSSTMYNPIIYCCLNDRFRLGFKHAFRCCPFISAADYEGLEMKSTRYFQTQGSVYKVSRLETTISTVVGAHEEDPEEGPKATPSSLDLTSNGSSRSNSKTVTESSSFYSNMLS
T4 sequence (P14600 whole entry): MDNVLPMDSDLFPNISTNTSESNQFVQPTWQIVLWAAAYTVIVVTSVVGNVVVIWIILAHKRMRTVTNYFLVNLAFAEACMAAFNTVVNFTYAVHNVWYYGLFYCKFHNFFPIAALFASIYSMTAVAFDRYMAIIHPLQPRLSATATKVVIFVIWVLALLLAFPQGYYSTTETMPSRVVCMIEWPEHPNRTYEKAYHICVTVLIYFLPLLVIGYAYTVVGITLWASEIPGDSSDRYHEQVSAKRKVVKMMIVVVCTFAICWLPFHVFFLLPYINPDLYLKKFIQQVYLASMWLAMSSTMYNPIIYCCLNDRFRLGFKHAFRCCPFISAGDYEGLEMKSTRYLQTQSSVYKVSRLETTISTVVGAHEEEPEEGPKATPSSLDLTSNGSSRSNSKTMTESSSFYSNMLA
T3 sequence (P25103 whole entry): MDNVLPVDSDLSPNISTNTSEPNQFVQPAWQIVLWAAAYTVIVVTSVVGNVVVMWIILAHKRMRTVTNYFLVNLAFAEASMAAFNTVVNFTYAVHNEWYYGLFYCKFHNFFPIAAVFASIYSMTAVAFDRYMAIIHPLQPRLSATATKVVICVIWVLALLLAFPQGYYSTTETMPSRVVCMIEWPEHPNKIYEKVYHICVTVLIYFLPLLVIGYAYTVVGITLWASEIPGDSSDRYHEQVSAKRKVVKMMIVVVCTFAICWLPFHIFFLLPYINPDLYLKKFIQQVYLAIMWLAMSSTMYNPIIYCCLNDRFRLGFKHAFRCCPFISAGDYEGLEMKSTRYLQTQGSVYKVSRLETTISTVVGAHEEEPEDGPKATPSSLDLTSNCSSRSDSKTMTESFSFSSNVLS
T2 sequence (P41143 whole entry): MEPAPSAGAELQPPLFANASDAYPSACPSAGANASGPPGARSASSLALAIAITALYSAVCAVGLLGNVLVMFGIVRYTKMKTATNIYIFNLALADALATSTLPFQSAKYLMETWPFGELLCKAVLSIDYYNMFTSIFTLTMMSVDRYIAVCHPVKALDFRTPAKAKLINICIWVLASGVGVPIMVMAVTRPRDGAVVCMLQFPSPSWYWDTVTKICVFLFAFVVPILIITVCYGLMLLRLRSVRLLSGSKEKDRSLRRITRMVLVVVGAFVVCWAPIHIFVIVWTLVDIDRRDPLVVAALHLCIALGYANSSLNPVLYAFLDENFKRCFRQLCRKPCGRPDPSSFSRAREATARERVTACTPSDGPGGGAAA
T5 sequence (P32300 whole entry): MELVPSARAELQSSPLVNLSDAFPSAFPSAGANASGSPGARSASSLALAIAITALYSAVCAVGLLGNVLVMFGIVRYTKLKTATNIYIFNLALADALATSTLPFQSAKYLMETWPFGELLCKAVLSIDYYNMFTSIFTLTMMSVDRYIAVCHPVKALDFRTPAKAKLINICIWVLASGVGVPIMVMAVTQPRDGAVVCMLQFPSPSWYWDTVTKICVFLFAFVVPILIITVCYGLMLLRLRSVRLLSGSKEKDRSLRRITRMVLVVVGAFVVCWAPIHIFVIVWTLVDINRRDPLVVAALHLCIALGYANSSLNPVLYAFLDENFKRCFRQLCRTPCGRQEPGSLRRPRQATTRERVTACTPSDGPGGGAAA
Chain of rNK1 (P14600 whole entry): as the sequence (P14600 whole entry) above
Chain of DOR (P41143 whole entry): as the sequence (P41143 whole entry) above
Chain of MOR (P35372 whole entry): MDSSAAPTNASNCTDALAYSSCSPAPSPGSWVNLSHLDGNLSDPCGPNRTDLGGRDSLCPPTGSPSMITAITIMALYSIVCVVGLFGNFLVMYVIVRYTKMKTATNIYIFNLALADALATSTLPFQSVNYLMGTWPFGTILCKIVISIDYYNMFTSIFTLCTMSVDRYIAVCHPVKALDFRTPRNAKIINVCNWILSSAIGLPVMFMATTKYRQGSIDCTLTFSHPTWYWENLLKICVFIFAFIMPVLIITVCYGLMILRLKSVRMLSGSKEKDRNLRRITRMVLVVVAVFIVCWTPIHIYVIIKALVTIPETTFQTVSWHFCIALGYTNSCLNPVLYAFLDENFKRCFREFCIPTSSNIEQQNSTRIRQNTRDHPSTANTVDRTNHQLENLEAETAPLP

Compound: CC(C)C[C@H](NC(=O)[C@@H]1CCCN1C(=O)[C@H](CC(C)C)NC(=O)[C@H](Cc1ccccc1)NC(=O)CNC(=O)[C@@H](C)NC(=O)[C@@H](N)Cc1ccc(O)cc1)C(=O)N[C@@H](Cc1c[nH]c2ccccc12)C(=O)OCc1cc(C(F)(F)F)cc(C(F)(F)F)c1 [TY004, H-Tyr-D-Ala-Gly-Phe-Leu-Pro-Leu-Trp-O-3,5-Bzl(CF3)2]
- LogEC50, rMOR, [35S]GTP-γ-S binding [1]: −7.48 ± 0.16
- EC50 ([1]; GTP binding rMOR EC50): 39.8 nM
- EC50 ([1]; read-out: EC50, rMOR, [35S]GTP-γ-S binding): 33 nM
- Emax ([1]; read-out: Emax, rMOR, [35S]GTP-γ-S binding): 46%
- Emax ([1]; read-out: GTP binding rMOR Emax): 44.5%
- Emax ([1]; read-out: GTP binding rMOR Emax (%)): 44.5%
- Ki(μ)/Ki(δ) [2]: 3.4
- LogEC50, hDOR, [35S]GTP-γ-S binding [2]: −8.09 ± 0.18
- δ selectivity in [35S]GTP-γ-S binding assays [2]: 3.4 fold
- EC50 ([2]; Table 27, read-out: GTP binding hDOR EC50): 9.6 nM
- Emax ([2]; Table 27, read-out: GTP binding hDOR Emax (%)): 42.5%
- EC50 ([2]; Table 39, read-out: GTP binding hDOR EC50): 9.6 nM
- Emax ([2]; Table 39, read-out: GTP binding hDOR Emax): 42.5%
- Emax ([2]; net total bound/basal binding × 100, read-out: Emax, hDOR, [35S]GTP-γ-S binding): 44%
- EC50 ([2]; read-out: EC50, hDOR, [35S]GTP-γ-S binding): 9.6 nM
- Ki [3]: 0.016 nM
- Ki [4]: 23.3 nM
- δ selectivity over μ in binding assays ([4]; Ki(μ)/Ki(δ)): 4.7 fold
- Ki ([4]; Table 27, read-out: Affinity hDOR (Ki; nM)): 5 nM
- Ki ([4]; Table 39, read-out: Affinity hDOR (Ki; nM)): 5 nM
- Ki(μ)/Ki(δ) ([4]; binding, rMOR vs hDOR): 4.7
- LogIC50, hDOR, [3H]DPDPE [4, 9]: −7.97 ± 0.07
- Ki ([4]; read-out: Ki, hDOR, [3H]DPDPE): 5 nM
- IC50 (μ opioid receptors (GPI); Table 28, read-out: GPI/LMMP Opioid(m) Agonist (IC50; nM)): 341 nM
- IC50 (μ opioid receptors (GPI); [10]): 341 nM
- IC50 (μ opioid receptors (GPI); [11]): 341 ± 71 nM
- IC50 (rat NK1 (rNK1) receptor; IC50, rNK1, Substance P radioligand): 20.9 nM
- IC50 (rat NK1 (rNK1) receptor; LogIC50, rNK1, Substance P radioligand): 20 nM
- Ki [5]: 23.3 nM
- LogIC50, rMOR, [3H]DAMGO [5, 9]: −7.30 ± 0.07
- IC50 (δ opioid receptors (MVD)): 101 nM
- δ selectivity in MVD and GPI assays (δ opioid receptors (MVD)): 3.4 fold
- IC50(MVD)/IC50(GPI) (δ opioid receptors (MVD); Table 4): 3.4
- IC50 (δ opioid receptors (MVD); electrically stimulated isolated tissue, read-out: MVD (δ), IC50): 101 ± 25 nM
- blood brain barrier penetration [6]: penetrate blood brain barrier
- IC50 [7]: 19.4 nM
- Kb ([7]; Ke): 19.4 ± 5 nM
- GPI/LMMP SP Agonist (IC50; nM) ([7]; Table 39, concentration not given): none
- activation at 1 µM ([7]; read-out: Substance P GPI agonist (A50), at 1 μM, contraction relative to initial muscle contraction with KCl): 0%

Compound: CSCC[C@H](NC(=O)[C@H](Cc1ccccc1)NC(=O)CNC(=O)[C@@H](C)NC(=O)[C@@H](N)Cc1ccc(O)cc1)C(=O)N1CCC[C@H]1C(=O)N[C@@H](CC(C)C)C(=O)N[C@@H](Cc1c[nH]c2ccccc12)C(=O)NCc1ccccc1 [TY025, H-Tyr-D-Ala-Gly-Phe-Met-Pro-Leu-Trp-NH-Bzl]
- LogEC50, hDOR ([2]; Table 14, logarithm of EC50 (negative), HN9.10 cell): −8.6 ± 0.13
- species difference between affinities at rNK1 and hNK1 ([3]; Ki rNK1 vs Ki hNK1): 220 fold
- logD7.4 [8]: 3.6
- IC50 (μ opioid receptors (GPI); Table 30, read-out: GPI/LMMP Opioid(m) Agonist (IC50; nM)): 61.1 nM
- IC50 (μ opioid receptors (GPI); [10]): 61.1 nM
- IC50 (μ opioid receptors (GPI); [11]): 61 nM
- Ki (rat NK1 (rNK1) receptor; Table 39, read-out: Affinity rNK1 (Ki; nM)): 696 nM
- blood brain barrier penetration [6]: penetrate blood brain barrier
- Kb ([7]; Ke (nM), Table 16): 9.9 ± 2.8 nM

Compound: CC(C)C[C@H](NC(=O)[C@@H]1CCCN1C(=O)[C@H]1NC(=O)[C@H](Cc2ccccc2)NC(=O)CNC(=O)[C@H](NC(=O)[C@@H](N)Cc2ccc(O)cc2)C(C)(C)SSC1(C)C)C(=O)N[C@@H](Cc1c[nH]c2ccccc12)C(=O)NCc1cc(C(F)(F)F)cc(C(F)(F)F)c1 [TY046]
- Emax ([2]; read-out: GTP binding hDOR Emax): 15%
- Emax ([2]; read-out: GTP binding hDOR Emax (%)): 15%
- Ki [3]: 0.0053 nM
- T1/2 (FIG. 47): 8.0 h
- Ki [5]: 2330 nM

Compound: HTyrDAlaDPhePheDTrpLeuMetNH2 [JSOH9]
- Ki (rNK1): 2940 nM
- Ki (MOR): 606 nM
- Ki (DOR): 0.72 nM

Compound: HTyrDAlaDTrpPheDTrpLeuLeuNH2 [JSOH11]
- Ki (rNK1): 7320 nM
- Ki (MOR): 164 nM
- Ki (DOR): 16.5 nM
